In patent EP3057951B1, “METHYLENE LINKED QUINOLINYL MODULATORS OF ROR-GAMMA-T” (Janssen Pharmaceutica NV, priority 2013, dated 2015):
“And” between values parts separate entries of the source, which are not always exact repeats. Identical values can stand only once. Counter-ions that a name gives are not always drawn. Like-named read-outs stand apart in the source and are kept apart here.

Tests used:
[1] = target: T1, wild type human RORγt ligand binding domain (RORyt LBD) (Homo sapiens, UniProt P51449); assay: RORγt ThermoFluor assay (thermal shift, binding affinity KD)
T1 construct: His-tag (N); TurboTEV protease cleavage site (ENLYFQG) (N); made in house; host or cells: E. coli (pHIS1, modified pET vector)
T1 sequence (P51449 258-518): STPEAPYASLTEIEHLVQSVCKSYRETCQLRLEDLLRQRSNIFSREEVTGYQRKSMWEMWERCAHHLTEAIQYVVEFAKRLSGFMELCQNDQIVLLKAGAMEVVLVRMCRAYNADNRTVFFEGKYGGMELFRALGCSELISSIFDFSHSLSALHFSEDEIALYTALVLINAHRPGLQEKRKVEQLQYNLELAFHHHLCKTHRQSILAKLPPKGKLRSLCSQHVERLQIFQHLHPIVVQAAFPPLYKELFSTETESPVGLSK

[2] = target: T2, wild type human RORγt LBD (Homo sapiens, UniProt P51449); assay: RORγt (LBD) Reporter Assay (GAL4-luciferase, HEK293T cells); assay type: cell-based; settings: for inhibition at 6 µM: HEK-293T, read-out: RORγt (LBD) Reporter Assay, % inhibition @ 6 µM, 6 µM compound concentration
T2 construct: expressed in transfected cells; host or cells: HEK293T
T2 sequence (P51449 258-518): T1 sequence (P51449 258-518)

[3] = HEK293T cells, value after the comma with ∼, > or < could not be included in the average

Kd [1]	IC50 [2, 3]	inhibition at 6 µM [2]	IC50 ([2]; HEK293T cells)	inhibition at 6 µM ([2]; HEK293T cells)	Compound
55 nM	1.9 nM	100%			COc1nc2ccc(C(O)(c3ccc(C#N)cc3)c3cncn3C)cc2c(Cl)c1Cc1ccc(C(F)(F)F)nc1 (centres unmarked) [Example 38a, 4-((4-Chloro-2-methoxy-3-((6-(trifluoromethyl)pyridin-3-yl)methyl)quinolin-6-yl)(hydroxy)(1-methyl-1H-imidazol-5-yl)methyl)benzonitrile]
2.8 nM	24 nM	99%			COc1nc2ccc(C(O)(c3ccc(C)nc3C)c3cnnn3C)cc2c(C#N)c1Cc1ccc(C(F)(F)F)nc1 (centres unmarked) [Example 41a, 6-((2,6-Dimethylpyridin-3-yl)(hydroxy)(1-methyl-1H-1,2,3-triazol-5-yl)methyl)-2-methoxy-3-((6-(trifluoromethyl)pyridin-3-yl)methyl)quinoline-4-carbonitrile]
1 nM	7.9 nM	98%			COc1nc2ccc(C(O)(c3cnnn3C)c3cnc(C)n3C)cc2c(Cl)c1Cc1ccc(C(F)(F)F)nc1 (centres unmarked) [Example 43a, (4-Chloro-2-methoxy-3-((6-(trifluoromethyl)pyridin-3-yl)methyl)quinolin-6-yl)(1,2-dimethyl-1H-imidazol-5-yl)(1-methyl-1H-1,2,3-triazol-5-yl)methanol]
10 nM	~4000 nM	82%			COc1nc2ccc(C(O)(c3ccccc3)C3CCN(C(C)=O)CC3)cc2c(Cl)c1Cc1ccc(F)cc1 (centres unmarked) [Example 50, 1-(4-((4-Chloro-3-(4-fluorobenzyl)-2-methoxyquinolin-6-yl)(hydroxy)(phenyl)methyl)piperidin-1-yl)ethanone]
200 nM	450 nM	101%			COCCOc1nc2ccc(C(O)(c3ccc(Cl)cc3)c3cncn3C)cc2c(Cl)c1Cc1ccc(-n2cccn2)cc1 (centres unmarked) [Example 56]
3100 nM	620 nM and ~2000 nM	83%			CCCCc1nc2ccc(C(O)(c3cccnc3)c3cccc(F)c3)cc2c(Cl)c1Cc1ccc(-n2cccn2)cc1 (centres unmarked) [Example 60, (3-(4-(1H-Pyrazol-1-yl)benzyl)-2-butyl-4-chloroquinolin-6-yl)(3-fluorophenyl)(pyridin-3-yl)methanol•TFA]
12 nM	83 nM	99%			COc1nc2ccc(C(O)(c3cccnc3)c3cccc(F)c3)cc2c(Cl)c1Cc1ccc(-n2cccn2)cc1 (centres unmarked) [Example 61, (3-(4-(1H-Pyrazol-1-yl)benzyl)4-chloro-2-methoxyquinolin-6-yl)(3-fluorophenyl)(pyridin-3-yl)methanol]
41 nM	120 nM	107%			COc1nc2ccc(C(O)(c3ccc(Cl)cc3)c3cccnc3)cc2c(Cl)c1Cc1ccc(-n2cccn2)cc1 (centres unmarked) [Example 62, (3-(4-(1H-pyrazol-1-yl)benzyl)4-chloro-2-methoxyquinolin-6-yl)(4-chlorophenyl)(pyridin-3-yl)methanol]
68 nM	140 nM	99%			COc1ccc(C(O)(c2cccnc2)c2ccc3nc(OC)c(Cc4ccc(-n5cccn5)cc4)c(Cl)c3c2)cc1 (centres unmarked) [Example 63]
1100 nM	1200 nM	53%			CC(=O)N1CCC(C(O)(c2ccc(F)cc2)c2ccc3nc(OC(F)F)c(Cc4cncnc4)c(OC(F)F)c3c2)CC1 (centres unmarked) [Example 72, 1-(4-((2,4-bis(Difluoromethoxy)-3-(pyrimidin-5-ylmethyl)quinolin-6-yl)(4-fluorophenyl)(hydroxy)methyl)piperidin-1-yl)ethanone]
67 nM	200 nM	96%			Cn1cncc1C(O)(c1ccc2nc(C(F)(F)F)c(Cc3ccccc3)c(Cl)c2c1)c1ccccn1 (centres unmarked) [Example 97, (3-Benzyl-4-chloro-2-(trifluoromethyl)quinolin-6-yl)(1-methyl-1H-imidazol-5-yl)(pyridin-2-yl)methanol•TFA]
25 nM	220 nM	78%			Cn1cncc1C(O)(c1ccc(Cl)cc1)c1ccc2nc(C(F)(F)F)c(Cc3ccccc3)c(Cl)c2c1 (centres unmarked) [Example 100, (3-benzyl-4-chloro-2-(trifluoromethyl)quinolin-6-yl)(4-chlorophenyl)(1-methyl-1H-imidazol-5-yl)methanol•TFA]
1300 nM	1900 nM	94%			Cn1cncc1C(O)(c1ccc(Cl)cc1)c1ccc2nc(C(F)(F)F)c(Cc3ccccc3)c(O)c2c1 (centres unmarked) [Example 102, 3-Benzyl-6-((4-chlorophenyl)(hydroxy)(1-methyl-1H-imidazol-5-yl)methyl)-2-(trifluoromethyl)quinolin4-ol•TFA]
9.4 nM	33 nM	81%			Cn1cncc1C(O)(c1ccc(Cl)cc1)c1ccc2nc(C(F)(F)F)c(Cc3ccccc3)c(C#N)c2c1 (centres unmarked) [Example 103, 3-Benzyl-6-((4-chlorophenyl)(hydroxy)(1-methyl-1H-imidazol-5-yl)methyl)-2-(trifluoromethyl)quinoline-4-carbonitrile•TFA]
6.3 nM	19 nM	82%			Cn1cncc1C(O)(c1ccc(C#N)cc1)c1ccc2nc(C(F)(F)F)c(Cc3ccccc3)c(C#N)c2c1 (centres unmarked) [Example 104, 3-Benzyl-6-((4-cyanophenyl)(hydroxy)(1-methyl-1H-imidazol-5-yl)methyl)-2-(trifluoromethyl)quinoline-4-carbonitrile•TFA]
5.6 nM	> 6000 nM	38%			Cn1cncc1C(O)(c1ccc(C(F)(F)F)nc1)c1ccc2nc(C(F)(F)F)c(Cc3ccccc3)c(Cl)c2c1 (centres unmarked) [Example 105, (3-Benzyl-4-chloro-2-(trifluoromethyl)quinolin-6-yl)(1-methyl-1H-imidazol-5-yl)(6-(trifluoromethyl)pyridin-3-yl)methanol•TFA]
48 nM		84%			COc1c(Cc2ccccc2)c(C(F)(F)F)nc2ccc(C(O)(c3ccc(C(F)(F)F)nc3)c3cncn3C)cc12 (centres unmarked) [Example 106a, (3-Benzyl-4-methoxy-2-(trifluoromethyl)quinolin-6-yl)(1-methyl-1H-imidazol-5-yl)(6-(trifluoromethyl)pyridin-3-yl)methanol•TFA]
3400 nM	5600 nM	57%			Cn1cncc1C(O)(c1ccc(C(F)(F)F)nc1)c1ccc2nc(C(F)(F)F)c(Cc3ccccc3)c(O)c2c1 (centres unmarked) [Example 107, 3-Benzyl-6-(hydroxy(1-methyl-1H-imidazol-5-yl)(6-(trifluoromethyl)pyridin-3-yl)methyl)-2-(trifluoromethyl)quinolin-4-ol•TFA]
4.4 nM	30 nM	90%			Cn1cncc1C(O)(c1ccc(C(F)(F)F)nc1)c1ccc2nc(C(F)(F)F)c(Cc3ccccc3)c(C#N)c2c1 (centres unmarked) [Example 108a, 3-Benzyl-6-(hydroxy(1-methyl-1H-imidazol-5-yl)(6-(trifluoromethyl)pyridin-3-yl)methyl)-2-(trifluoromethyl)quinoline-4-carbonitrile•TFA]
14 nM	~4000 nM	80%			Cn1cncc1C(O)(c1ccc(C(F)(F)F)nc1)c1ccc2nc(Cl)c(Cc3ccccc3)c(Cl)c2c1 (centres unmarked) [Example 109, (3-Benzyl-2,4-dichloroquinolin-6-yl)(1-methyl-1H-imidazol-5-yl)(6-(trifluoromethyl)pyridin-3-yl)methanol•TFA]
5.2 nM			71 nM	101%	COc1nc2ccc(C(O)(c3cnnn3C)C3CN(C(=O)OC(C)(C)C)C3)cc2c(Cl)c1Cc1ccc(C(F)(F)F)cc1 (centres unmarked) [Example 123, tert-Butyl-3-((4-chloro-2-methoxy-3-(4-(trifluoromethyl)benzyl)quinolin-6-yl)(hydroxy)(1-methyl-1H-1,2,3-triazol-5-yl)methyl)azetidine-1-carboxylate]
240 nM			670 nM	93%	COc1nc2ccc(C(O)(c3cnnn3C)C3CNC3)cc2c(Cl)c1Cc1ccc(C(F)(F)F)cc1 (centres unmarked) [Example 124, Azetidin-3-yl(4-chloro-2-methoxy-3-(4-(trifluoromethyl)benzyl)quinolin-6-yl)(1-methyl-1H-1,2,3-triazol-5-yl)methanol]
9.4 nM			290 nM	100%	COc1nc2ccc(C(O)(c3ccc(C)nc3C)C3CN(C(=O)OC(C)(C)C)C3)cc2c(Cl)c1Cc1ccc(C(F)(F)F)cc1 (centres unmarked) [Example 125, tert-Butyl-3-((4-chloro-2-methoxy-3-(4-(trifluoromethyl)benzyl)quinolin-6-yl)(2,6-dimethylpyridin-3-yl)(hydroxy)methyl)azetidine-1-carboxylate]
350 nM			240 nM	101%	COCCN(C)c1nc2ccc(C(O)(c3ccc(Cl)cc3)c3cncn3C)cc2c(Cl)c1Cc1ccc(-n2cccn2)cc1 (centres unmarked) [Example 127, {4-Chloro-2-[(2-methoxyethyl)(methyl)amino]-3-[4-(1H-pyrazol-1-yl)benzyl]quinolin-6-yl}(4-chlorophenyl)(1-methyl-1H-imidazol-5-yl)methanol]

Compound	Kd [1]	IC50 [2, 3]	inhibition at 6 µM [2]	IC50 ([2]; HEK293T cells)	inhibition at 6 µM ([2]; HEK293T cells)
Cn1cc(-c2nc3ccc(C(O)(c4ccc(C(F)(F)F)nc4)c4cncn4C)cc3c(C#N)c2Cc2ccccc2)cn1 (centres unmarked) [Example 112a, 3-Benzyl-6-(hydroxy(1-methyl-1H-imidazol-5-yl)(6-(trifluoromethyl)pyridin-3-yl)methyl)-2-(1-methyl-1H-pyrazol-4-yl)quinoline-4-carbonitrile•TFA]	6600 nM	1000 nM	91%		
